# According to US20240247048A1 (EMORY UNIVERSITY, priority 2021, published 2024):
# Key:
# [1] = system: orthotopic KPC-Luc tumors; assay: orthotopic KPC-Luc pancreatic tumor model; type: in vivo, mouse; conditions: FIG. 21b
# Excerpt: KPC.Luc cells were orthotopically implanted in the tail of the pancreas of C57BL/6 mice and treated with ANT008 and/or anti-PD-1 with n=9, 10, 8 and 11 in scrambled+IgG, ANT008+IgG, scrambled+anti-PD-1 and ANT008+anti-PD-1, respectively. (FIG. 21A) Schematic showing orthotopic implantation of KPC.Luc cells and treatment strategy with ANT008 and/or anti-PD-1. (FIG. 21B) Waterfall plot showing % change in tumor flux on day 22 relative to day 7 prior to start of treatment. (FIG. 21C) Total flux as measured by IVIS bioluminescent imaging in the different treatment groups. Isoflurane was used for anesthesia for bioluminescent imaging. Median flux represented as dashed gray line (----). Cross symbol (+) represents mice that were euthanized before day 25 due to ulceration of the tumor and circle symbol (∘) represent mouse that were imaged on day 26 via MRI imaging shown in FIG. 30. (FIG. 21D) Bar graph showing weight of pancreas on day 25 when the mice were euthanized. ‘Star’ shaped (⋆) data points indicate tumor free mice and dotted horizontal line (----) represents the average weight of healthy pancreas from naïve mice. […] P values in FIG. 21D were calculated using student ANOVA followed by Dunnett's post hoc test (comparing each treatment group with Scram+IgG). […]
# human T cells = assay: activation of healthy-donor human T cells (anti-CD3), marker expression by flow cytometry; type: cell-based; conditions: 24 h post activation, 3 uM, vs scrambled peptide; FIG. 17d
# Description: Mean value from ‘Activated’ group shown with dotted line (---) for comparison. Responses from same healthy donors are shown with same color dots. Error bars are computed as the standard error of the mean (SEM) from 6 healthy donor samples.
# This study adopted an ex-vivo system using human T cells isolated from healthy donors to screen for novel VIP-R antagonist peptides. Human T cells were cultured over 6 or 24 hours with activation in the presence or absence of peptides and were assessed for percent CD69 surface expression by flow cytometry to measure the state of T cell activation. The activity of the peptides was determined by percent increase in CD69 expression relative to no peptide control. […] We also observed that amongst the donors, most were classified as average responders, with measured value for CD69 expression within the error bars while two others had measured values outside the error bars, one sample reflecting a super-responder (purple dots) and one sample reflecting a slow-responder (green dots) (FIGS. 10A and 10B). […]
# Human T cell activation and expansion. […] Cells were counted using Trypan blue dye and phenotyped via flow cytometry on day 9. […]
Sequence,"mice in which tumors regressed, number of mice of group [1]",mice in which tumors regressed ([1]; tumor flux day 22 relative to day 7) [%],CD69 expression in CD4 and CD8 human T cells (human T cells)
KPRRPYTDNYTRLRKQMAVKKYLNLILN [ANT008],4/10,40,–
KPRRPYTSDYTRLRKQMAVKKYLNLILN [ANT308],–,–,significantly increased
